# Measurements reported in patent US12084434B2 (Scorpion Therapeutics, Inc., priority 2021, dated 2024).
# System: T47D pAKT (S473), PI3Kα H1047R mutation present
# Test: HTRF pAKT-T47D;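 note: assay medium was RPMI with 10% FBS and 0.2 units/ml bovine insulin, without phenol red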
# Conditions: Homo sapiens, T47D, 1 h, read-out: T47D pAKT IC50 (nM)
row,Structure (SMILES),IC50 [nM]
1,CC(=O)Nc1ncc(NC(=O)N[C@H](c2oc3ccc(F)cc3c2C)C(C)C)cn1 [Compound 159],< 1000

# Same assay, conditions: Homo sapiens, T47D, 1 h, read-out: T47D pAKT IC50 (nM), T47D.1 cells, pAKT (S473) HTRF, 1 hour
row,Structure (SMILES),IC50 [nM]
1,"Cc1c([C@H](NC(=O)Nc2cnc(N3CC(C)(O)C3)nc2)C(F)(F)F)oc2c(F)cc(F)cc12 (single isomer, unassigned) [Compound 93]",< 1000
2,"Cc1c([C@H](NC(=O)Nc2ccc3[nH]ncc3c2)C(F)(F)F)oc2c(F)cc(F)cc12 [Compound 193, 3-[(1S)-1-(5,7-difluoro-3-methyl-1-benzofuran-2-yl)-2,2,2-trifluoroethyl]-1-(1H-indazol-5-yl)urea]",> 5000
3,"Cc1c([C@@H](NC(=O)Nc2cnc(N3CCS(=N)(=O)CC3)nc2)C(C)C)oc2ccc(F)cc12 [Compound 147, 3-[(1S)-1-(5-fluoro-3-methyl-1-benzofuran-2-yl)-2-methylpropyl]-1-[2-(1-imino-1-oxo-1lambda6-thiomorpholin-4-yl)pyrimidin-5-yl]urea]",< 1000
4,CCC1(O)CN(c2ncc(NC(=O)N[C@H](c3oc4ccc(F)cc4c3C)C(C)C)cn2)C1 [Compound 144],< 1000
5,"Cc1c([C@@H](NC(=O)Nc2cnc(N3CC(O)C3)nc2)C(C)C)oc2ccc(F)cc12 [Compound 87, (S)-1-(1-(5-fluoro-3-methylbenzofuran-2-yl)-2-methylpropyl)-3-(2-(3-hydroxyazetidin-1-yl)pyrimidin-5-yl)urea]",< 1000
6,"Cc1c([C@@H](NC(=O)Nc2cnc(N)nc2)C2(F)CC2)oc2ccc(F)cc12 [Compound 81, (R)-1-(2-aminopyrimidin-5-yl)-3-((5-fluoro-3-methylbenzofuran-2-yl)(1-fluorocyclopropyl)methyl)urea]",< 1000

# Further lines, results first:
row,IC50 [nM],Structure (SMILES)
1,< 1000,"COC(=O)Nc1ncc(NC(=O)N[C@H](c2oc3ccc(F)cc3c2C)C(C)C)cn1 [Compound 162, methyl N-[5-({[(1S)-1-(5-fluoro-3-methyl-1-benzofuran-2-yl)-2-methylpropyl]carbamoyl}amino)pyrimidin-2-yl]carbamate]"
2,< 1000,"Cc1c([C@@H](NC(=O)Nc2cnc(N)nc2)C2(C)CC2)oc2ccc(F)cc12 [Compound 84, (S)-1-(2-aminopyrimidin-5-yl)-3-((5-fluoro-3-methylbenzofuran-2-yl)(1-methylcyclopropyl)methyl)urea]"
3,< 1000,Cc1c([C@@H](NC(=O)Nc2cnc(N3CC(C(N)=O)C3)nc2)C(F)(F)F)oc2c(F)cc(F)cc12 [Compound 211]
4,< 1000,"Cc1c([C@@H](NC(=O)Nc2cnc(N3CC4(CCCO4)C3)nc2)C(C)C)oc2ccc(F)cc12 [Compound 165, 3-[(1S)-1-(5-fluoro-3-methyl-1-benzofuran-2-yl)-2-methylpropyl]-1-(2-{5-oxa-2-azaspiro[3.4]octan-2-yl}pyrimidin-5-yl)urea]"
5,1000 to 5000,"Cc1c([C@@H](NC(=O)Nc2csc(C(N)=O)c2)C(C)C)oc2ccc(F)cc12 [Compound 123, (S)-4-(3-(1-(5-fluoro-3-methylbenzofuran-2-yl)-2-methylpropyl)ureido)thiophene-2-carboxamide]"
6,< 1000,Cc1c([C@@H](NC(=O)Nc2cnc(NC3COC3)nc2)C(C)C)oc2ccc(F)cc12 [Compound 136]
7,< 1000,"Cc1c([C@@H](NC(=O)Nc2cnc(N3CCNC3=O)nc2)C(C)C)oc2ccc(F)cc12 [Compound 161, 3-[(1S)-1-(5-fluoro-3-methyl-1-benzofuran-2-yl)-2-methylpropyl]-1-[2-(2-oxoimidazolidin-1-yl)pyrimidin-5-yl]urea]"
8,< 1000,Cc1c([C@@H](NC(=O)Nc2cnc(NCCCO)nc2)C(C)C)oc2ccc(F)cc12 [Compound 137]
9,1000 to 5000,"Cc1c(C(NC(=O)Nc2cnc(N3CC(F)C3)nc2)C(F)(F)F)oc2c(F)cc(F)cc12 (single isomer, unassigned) [Compound 225, 1-(1-(5,7-difluoro-3-methylbenzofuran-2-yl)-2,2,2-trifluoroethyl)-3-(2-(3-fluoroazetidin-1-yl)pyrimidin-5-yl)urea]"

# Same assay, conditions: read-out: T47D pAKT IC50; T47D.1 cells, pAKT (S473) HTRF, 1 hour
row,IC50 [nM],Structure (SMILES)
1,> 5000,"CCc1c(C(NC(=O)Nc2cnc(N)nc2)C(F)(F)F)oc2ccc(F)cc12 (racemic) [Compound 133, 1-(2-aminopyrimidin-5-yl)-3-[1-(3-ethyl-5-fluoro-1-benzofuran-2-yl)-2,2,2-trifluoroethyl]urea]"
2,> 5000,"Cc1c(C(NC(=O)Nc2cnc(N3CC(C)(O)C3)nc2)C(F)(F)F)oc2c(Cl)cc(F)cc12 (single isomer, unassigned) [Compound 201, 1-(1-(7-chloro-5-fluoro-3-methylbenzofuran-2-yl)-2,2,2-trifluoroethyl)-3-(2-(3-hydroxy-3-methylazetidin-1-yl)pyrimidin-5-yl)urea]"
3,> 5000,"Cc1c(C(NC(=O)Nc2cnc(N[C@@H](C)CO)nc2)C(F)(F)F)oc2c(F)cc(F)cc12 (single isomer, unassigned) [Compound 195]"
4,< 1000,"Cc1c(C(NC(=O)Nc2cnc(N3CC(S(C)(=O)=O)C3)nc2)C(F)(F)F)oc2c(F)cc(F)cc12 (racemic) [Compound 186, 1-(1-(5,7-difluoro-3-methylbenzofuran-2-yl)-2,2,2-trifluoroethyl)-3-(2-(3-(methylsulfonyl)azetidin-1-yl)pyrimidin-5-yl)urea]"
5,< 1000,Cc1c(C(NC(=O)Nc2ccc(N)nc2)C(F)(F)F)oc2c(F)cc(F)cc12 (centres unmarked) [Compound 182]
6,< 1000,"Cc1c(C(NC(=O)Nc2cnc(N3CC(C(=O)O)C3)nc2)C(F)(F)F)oc2c(F)cc(F)cc12 (single isomer, unassigned) [Compound 197, 1-[5-({[1-(5,7-difluoro-3-methyl-1-benzofuran-2-yl)-2,2,2-trifluoroethyl]carbamoyl}amino)pyrimidin-2-yl]azetidine-3-carboxylic acid]"
7,> 5000,"Cc1c(C(NC(=O)Nc2cnc(N3CC4(COC4)C3)nc2)C(F)(F)F)oc2c(F)cc(F)cc12 (racemic) [Compound 171, 1-(2-(2-oxa-6-azaspiro[3.3]heptan-6-yl)pyrimidin-5-yl)-3-(1-(5,7-difluoro-3-methylbenzofuran-2-yl)-2,2,2-trifluoroethyl)urea]"
8,< 1000,"Cc1c(C(NC(=O)Nc2cnc(N3CCNC(=O)C3)nc2)C(F)(F)F)oc2c(F)cc(F)cc12 (single isomer, unassigned) [Compound 189, 1-(1-(5,7-difluoro-3-methylbenzofuran-2-yl)-2,2,2-trifluoroethyl)-3-(2-(3-oxopiperazin-1-yl)pyrimidin-5-yl)urea]"
9,> 5000,"Cc1c(C(NC(=O)Nc2cnc(N3CC(O)C3)nc2)C(F)(F)F)oc2c(Cl)cc(F)cc12 (single isomer, unassigned) [Compound 199, 3-[1-(7-chloro-5-fluoro-3-methyl-1-benzofuran-2-yl)-2,2,2-trifluoroethyl]-1-[2-(3-hydroxyazetidin-1-yl)pyrimidin-5-yl] urea]"

# Target: T1, PI3Kα H1047R protein (p110-α H1047R complexed with truncated p85-α) (Homo sapiens, UniProt P42336, H1047R)
# T1 construct: The protein contained a full-length p110-α subunit harboring the H1047R mutation
# Test: Surface Plasmon Resonance (SPR) binding, wortmannin-blocked protein
# Conditions: Biacore 8K, ATP site blocked with 1 μM wortmannin, 25° C.
# Description: Surface Plasmon Resonance (SPR)
# SPR experiments were performed on a Biacore 8K instrument. A biotinylated recombinant PI3Kα H1047R protein was used in this study. The protein contained a full-length p110-α subunit harboring the H1047R mutation with an N-terminal AviTag, complexed with a truncated p85-α subunit (amino acid residues 322-694). The protein was first incubated with 1 μM wortmannin for 30 min at RT to covalently block the ATP binding site, then immobilized onto a streptavidin sensor chip by flowing the protein through the sensor chip at typically 20 μg/mL concentration and 2 μL/min flow rate for 1200 seconds. Compound binding affinities were measured in the multi-cycle kinetics mode, at 90 μL/min flow rate with 90 seconds association time and 240 seconds dissociation time. The running buffer contained 50 mM Tris, pH 7.5, 150 mM NaCl, 0.01% Brij35, 1 mM DTT, 1 mM MgCl2, 0.05% Tween-20 and 2% DMSO. Temperature was maintained at 25° C. during experiments.
# T1 sequence (P42336 whole entry H1047R, the tested form may be a part): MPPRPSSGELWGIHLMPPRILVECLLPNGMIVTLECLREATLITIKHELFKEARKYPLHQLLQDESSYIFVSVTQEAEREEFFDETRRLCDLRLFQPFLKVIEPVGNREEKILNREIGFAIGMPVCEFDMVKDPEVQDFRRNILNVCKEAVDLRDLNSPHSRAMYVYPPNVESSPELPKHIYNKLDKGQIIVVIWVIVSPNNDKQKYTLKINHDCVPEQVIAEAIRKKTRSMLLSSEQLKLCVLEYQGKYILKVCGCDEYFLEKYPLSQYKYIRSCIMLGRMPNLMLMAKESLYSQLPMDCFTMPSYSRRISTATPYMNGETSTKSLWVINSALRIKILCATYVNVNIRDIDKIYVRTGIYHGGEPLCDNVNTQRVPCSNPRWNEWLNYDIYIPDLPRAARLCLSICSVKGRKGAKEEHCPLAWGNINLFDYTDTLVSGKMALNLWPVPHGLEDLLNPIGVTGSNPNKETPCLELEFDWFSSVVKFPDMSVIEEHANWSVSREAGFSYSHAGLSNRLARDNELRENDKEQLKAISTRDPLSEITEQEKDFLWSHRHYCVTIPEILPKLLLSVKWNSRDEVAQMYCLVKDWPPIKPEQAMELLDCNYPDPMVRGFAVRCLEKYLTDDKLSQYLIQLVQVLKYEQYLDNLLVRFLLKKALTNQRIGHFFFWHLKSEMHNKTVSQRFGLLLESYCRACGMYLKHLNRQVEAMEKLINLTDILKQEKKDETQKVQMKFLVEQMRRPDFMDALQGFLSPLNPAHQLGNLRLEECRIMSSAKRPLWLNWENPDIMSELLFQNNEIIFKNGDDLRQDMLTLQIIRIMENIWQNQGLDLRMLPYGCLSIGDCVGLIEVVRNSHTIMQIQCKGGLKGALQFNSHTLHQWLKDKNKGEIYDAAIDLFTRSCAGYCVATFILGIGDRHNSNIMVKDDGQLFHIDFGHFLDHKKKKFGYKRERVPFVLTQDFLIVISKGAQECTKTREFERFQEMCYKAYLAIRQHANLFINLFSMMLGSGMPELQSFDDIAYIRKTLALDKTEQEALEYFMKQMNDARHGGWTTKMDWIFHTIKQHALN
# T1 sequence (P27986 322-694 partner limits assumed): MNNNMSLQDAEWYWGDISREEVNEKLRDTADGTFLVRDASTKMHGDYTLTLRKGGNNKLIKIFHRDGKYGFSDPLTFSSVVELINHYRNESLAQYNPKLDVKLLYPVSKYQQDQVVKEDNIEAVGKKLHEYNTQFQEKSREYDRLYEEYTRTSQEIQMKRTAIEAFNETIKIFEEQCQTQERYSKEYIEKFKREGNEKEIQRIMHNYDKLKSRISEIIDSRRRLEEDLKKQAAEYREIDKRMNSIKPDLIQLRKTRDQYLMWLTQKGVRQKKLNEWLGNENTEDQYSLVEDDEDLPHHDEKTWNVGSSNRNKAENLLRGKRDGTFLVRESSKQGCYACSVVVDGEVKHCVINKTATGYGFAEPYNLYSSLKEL
row,Structure (SMILES),Kd [µM]
1,"Cc1c([C@@H](NC(=O)Nc2ccc(C(N)=O)cc2)C(C)C)oc2ccc(F)cc12 (single isomer, unassigned) [Compound 21]",0.1 to 0.25
2,"Cc1c([C@@H](NC(=O)Nc2cncc(C#N)c2)C2CC2)oc2ccc(F)cc12 [Compound 46, (S)-1-(5-cyanopyridin-3-yl)-3-(cyclopropyl(5-fluoro-3-methylbenzofuran-2-yl)methyl)urea]",≥ 0.5
3,"Cc1c([C@@H](NC(=O)Nc2cccc(S(C)(=N)=O)c2)C(C)C)oc2ccc(F)cc12 (stereo partly drawn) [Compound 28, 1-((S)-1-(5-fluoro-3-methylbenzofuran-2-yl)-2-methylpropyl)-3-(3-(S-methylsulfonimidoyl)phenyl)urea]",0.1 to 0.25
4,"Cc1c([C@@H](NC(=O)Nc2cccc(S(N)(=O)=O)c2)C(C)C)oc2ccc(F)cc12 [Compound 17, (S)-3-(3-(1-(5-fluoro-3-methylbenzofuran-2-yl)-2-methylpropyl)ureido)benzenesulfonamide]",0.25 to 0.5
5,"Cc1c([C@@H](NC(=O)Nc2ccc(S(C)(=O)=O)cc2)C(C)C)oc2ccccc12 [Compound 9, (S)-1-(2-methyl-1-(3-methylbenzofuran-2-yl)propyl)-3-(4-(methylsulfonyl)phenyl)urea]",0.25 to 0.5
6,"Cc1c([C@@H](NC(=O)N[C@@H]2CCCN(S(C)(=O)=O)C2)C(C)C)oc2ccc(F)cc12 (single isomer, unassigned) [Compound 19]",≥ 0.5
7,"Cc1c([C@@H](NC(=O)N[C@H]2CC[C@H](O)CC2)C(C)C)oc2cccc(F)c12 [Compound 7, 1-((S)-1-(4-fluoro-3-methylbenzofuran-2-yl)-2-methylpropyl)-3-((1r, 4S)-4-hydroxycyclohexyl)urea]",≥ 0.5
8,"Cc1c([C@@H](NC(=O)N[C@H]2CC[C@H](C(N)=O)CC2)C(C)C)oc2ccc(F)cc12 (relative stereo) [Compound 42, (1R,4r)-4-(3-((R*)-1-(5-fluoro-3-methylbenzofuran-2-yl)-2-methylpropyl)ureido)cyclohexane-1-carboxamide]",≥ 0.5

# Further lines, results first:
row,Kd [µM],Structure (SMILES)
1,≥ 0.5,"Cc1c([C@@H](C)NC(=O)Nc2ccc(C(N)=O)cc2)oc2ccc(F)cc12 [Compound 4, (R)-4-(3-(1-(5-fluoro-3-methylbenzofuran-2-yl)ethyl)ureido)benzamide]"
2,0.1 to 0.25,"Cc1c(C(NC(=O)Nc2ccc(S(C)(=O)=O)cc2)C(C)C)oc2ccc(F)cc12 (single isomer, unassigned) [Compound 11]"
